Laboratory results from a melting point compilation (Tetko et al.; mined from patent text by program, amines drawn as free bases though some values may be those of a salt).

Structure (SMILES)	melting point [°C]
COc1ccc(S(=O)(=O)N(CC(C)C)CC(O)C(Cc2ccccc2)NC(=O)C(C)CS(C)(=O)=O)cc1OC (stereo not drawn)	130 to 133
NC(=O)c1ccccc1Sc1ccccc1[N+](=O)[O-]	166 to 167
C=CC(C)(C)c1c(C=O)c2ccc(Cl)cc2n1COCc1ccccc1	227
CCCCOC(=O)c1ccc2ccc(C)nc2c1O	50
COc1ccc(-c2nc(-c3cccn3CC(=O)OCC(C)C)sc2-c2ccc(OC)cc2)cc1	106 to 108
Clc1ncc(OC[C@@H]2CCCN2)cc1-c1ccccc1	75 to 80
CC(C)(C)Sc1c(CC(C)(C)C(=O)O)n(Cc2ccc(Cl)cc2)c2ccc(OCc3ccc4ccccc4c3)cc12	213 to 214
COc1ccc2nc(-c3cc(C(F)(F)F)nn3-c3ccc(S(N)(=O)=O)cc3)sc2c1	236 to 237
CCCCc1ccc(OC)c(-c2csc(N)n2)c1	48
O=S(=O)(Nc1cccc(CCOCc2ccc(-c3ccc(Cl)c(Cl)c3)cc2F)c1)C(F)(F)F	102 to 104
Cc1ccc(N(C)S(=O)(=O)c2cccs2)c2[nH]c(C(=O)O)cc12	223 to 225
COc1cc(Br)ccc1OCc1ccc2ccccc2c1	108
Nc1cccc(-c2ccc(C3=CCCN(Cc4ccccc4)C3)cc2)n1	270 to 272
COc1ccc([C@]2(O)OCC(C)(C)N[C@H]2C)cc1	170 to 172
CCCCCN1C(=O)C(CCC#N)(NC(=O)c2ccc(Cl)c(Cl)c2)c2ccccc21 (stereo not drawn)	79 to 84
CS(=O)(=O)c1c(C(=O)NN=Cc2cccc3ccccc23)[nH]c2ccccc12	> 250
Nc1ccc(Cl)c(Cl)c1CO	134 to 135
COCCN(C)C(=O)NCCNCC(O)COc1ccc(OCCOCC(C)C)cc1 (stereo not drawn)	60 to 63
CNc1[nH]c(-c2ccccc2)c(C)c1C#N	138 to 139
C[C@@H](C(=O)OC(C)(C)C)N(Cc1ccccc1)S(=O)(=O)c1ccc2c(Cl)cnc(Cl)c2c1	92 to 96
NC(=O)N(O)CC#Cc1cccc(Oc2cccnc2)c1	107 to 110
O=C(O)c1cccc2c1Cc1c-2[nH]c2ccc(I)cc12	251
CCCC1=C(C)C(=O)c2c(oc(Cc3ccc(OC)cc3)c2C)C1=O	60 to 61
CS(=O)(=O)Nc1cc(NC(=O)CCl)c([N+](=O)[O-])cc1Oc1ccccc1	194 to 195
CC(C)NC(=O)c1ccc(-c2ccc3nnn(Cc4ccc5ncccc5c4)c3n2)cc1	181 to 183

Structure (SMILES)	melting point [°C]
CC(C)Cn1c(C(=O)OC(C)(C)C)c(-c2ccccc2)c2cc(OCc3ccccc3)ccc2c1=O	138 to 139
CCc1cc(NC(=O)N2CCC(C(=O)O)(c3ccccc3)CC2)c(OC)nc1C	173 to 174
O=C(CCc1ccccc1)c1ccc(Cl)cc1	78 to 79
COC(=O)CC(=O)Nc1cccc(S)c1	52 to 54
CCOC(=O)/C=C/c1cn(-c2ccccc2)nc1OCc1ccc(OCc2nc(-c3ccco3)oc2C)cc1	142 to 143
c1csc(-c2nc(CCCOc3ccc(CCCn4ccnc4)cc3)co2)c1	99 to 100
O=[N+]([O-])c1cn2c(n1)OC[C@@H](OCc1ccc(Cl)nn1)C2	180 to 184
C=C(C)C=COc1ccc(C(=O)C=Cc2ccc(OCC(=O)O)c(OC)c2)c(OCC(=O)O)c1	> 200
Cn1cc(-c2cc3cccnc3[nH]2)c2ccc(C(=O)NCCC(N)=O)cc21	277 to 280
COc1ccc(C(=O)C2=C(O)C(=O)N(c3ccc(C)nn3)C2c2ccc(OC(F)(F)F)cc2)cn1 (stereo not drawn)	250 to 251
CC1Cc2cc(S(=O)(=O)n3cc(-c4ccccc4)[nH]c3=O)ccc2N1C(=O)c1ccc(NC(=O)CCl)cc1 (stereo not drawn)	246
O=C1C(=Cc2ccc(Cl)cc2)CCCC1=Cc1ccc(Cl)cc1	142 to 144
CCOCc1nc2c(N)nc3cc(OCc4ccccc4)ccc3c2n1CC(C)(C)O	215 to 216
CCC(CC)N(O)C(=O)NC(C)(C)c1cccc(C(C)(C)NC(=O)N(O)C(CC)CC)c1	170 to 172
N#Cc1ccc(OCc2cnsc2)cc1F	102 to 105
COc1ccc(N(Cc2ccc(C#N)cc2)n2ccnc2)cc1	207
OCc1cc2ccccc2c(-c2ccccc2)c1CO	150
CC(C)NC(C)Cc1ccc(O)cn1 (stereo not drawn)	135 to 138
COc1ccc2c(c1)c(-c1[nH]c3nccnc3c1C)cn2C	243 to 244
CCOC(=O)c1cn(Cc2ccccc2)nc1NC(=O)NCc1ccccc1	82 to 83
NC(=S)NN=Cc1c2ccccc2c(C=NNC(N)=S)c2ccccc12	275 to 277
COC(=O)CN(CC(F)(F)F)c1ccc(C#N)c(C(F)(F)F)c1	144 to 145
O=C(Cl)COC(=O)c1ccccc1	25 to 26
CC(C)(C)CN1C(=O)N(CC(=O)O)N=C(c2ccccc2Cl)c2cc(Cl)ccc21	181 to 183
c1ccc(-c2cc(-c3ccccc3)c(N3CCN(c4ncccn4)CC3)nn2)cc1	71 to 74

Further lines, results first:

melting point [°C]	Structure (SMILES)
152 to 154	CCOCc1nc2c(N)nc3c(c2n1NCCCNC(=O)N1CCOCC1)CCCC3
77 to 79	CC(C)=Cn1ccnc1[N+](=O)[O-]
118 to 119	O=C(CN1CCCC1=O)N1CCC(C2c3ncc(Br)cc3CCc3cc(Cl)cc(Br)c32)CC1 (single isomer, unassigned; (+))
53 to 54	CC(C)=CCn1cc(C)nc1[N+](=O)[O-]
166 to 167	CC(=O)C1CCC2C3CC=C4CC(F)CCC4(C)C3CCC12C (stereo not drawn)
133 to 135	C#CCNCC1=Cc2cc(S(N)(=O)=O)sc2S(=O)(=O)N1C(C)C
288 to 290	O=C1CSc2nc(Nc3ccc(N4CCOCC4)cc3)ncc2N1
132 to 136	CC(C)N1C(N)=NS(=O)(=O)NC1Oc1ccc([N+](=O)[O-])cc1 (stereo not drawn)
181 to 183	COC(=O)c1ccc2nc3n(c(=O)c2c1)CCC3=Cc1ccccc1C
72 to 73	CCCCC[C@H]1CC[C@H](CC(=O)c2ccc(-c3ccc(CC)cc3F)cc2)CC1
165 to 166	NS(=O)(=O)c1cc(CCNC(=O)/C=C/c2cccs2)ccc1-c1ccco1
131 to 132	CCON1CCC(NC(=O)Cc2c(C)cc(C)cc2C)(C(=O)OC)CC1
214 to 216	Nc1sc(-c2ccncc2)c(CN(C2CCCCC2)C2CCCCC2)c1C(=O)c1ccc(Cl)cc1
110	C=CCCn1cnc2c1c(=O)n(C)c(=O)n2C
166 to 173	O=C(O)c1c([N+](=O)[O-])ccc2c1OCO2
130	Cc1ccc(S(=O)(=O)N2CCC(CC(C#N)(c3ccccc3)c3ccccc3)CC2)cc1
175 to 179	CC(C)N(O)C(=O)c1c(Cl)cccc1[Si](C)(C)C
193 to 195	CNc1nc(-c2cccc(NC(=O)c3ccc(Cl)cc3)c2)c2cc(OC)c(OC)cc2n1
154 to 156	C/C=C/CONC(=O)c1nc(-c2ccc(Cl)c(OC)c2F)cc(N)c1Cl
227 to 229	O=[N+]([O-])c1cn2c(n1)O[C@@H](COc1ccc(N3CCC(Nc4ccc(OCc5ccc(OC(F)(F)F)cc5)cc4)CC3)cc1)CC2
63 to 65	Cc1ccc(C)c(OCCCC(=O)O)c1
197 to 201	CC(C)CC(CC(=O)NO)C(=O)N[C@H]1Cc2cn(c3ccccc23)CCCCCCCNC1=O (stereo partly drawn)
87 to 89	COc1ccc(OC(=O)Cl)cc1C12CC3CC(CC(C3)C1)C2
174	CC(=O)N(C(C)=O)c1cnn(-c2cccc(C(F)(F)F)c2)c(=O)c1-c1cccc(C(F)(F)F)c1

melting point [°C]	Structure (SMILES)
220 to 222	CNc1cc(-n2cc(C(=O)O)c(=O)c3cc(F)c(NC)c(C)c32)c(F)cc1F
169 to 170	CC1(C)CCC(C)(C)c2cc(SCc3ccc(C(=O)O)cc3)ccc21
100 to 101	COc1c(O)cccc1C(=O)C1CCN(CCc2ccc(F)cc2)CC1
121 to 124	CCc1nc2c(O)c(CCC(O)c3ccccc3)c(C(=O)N(C)C)cc2n1C (stereo not drawn)
94 to 96.5	Cc1nn(-c2cc(OC(C)C)c(Cl)cc2F)c(C)c1N
142	CC(C)C(=N)Nc1cc(F)ccc1N1CCOCC1
240 to 242	COc1nc2cc(Cl)c(Cl)c(N(CCO)S(C)(=O)=O)c2nc1OC
220 to 222	CCCC(=O)Nc1n[nH]c2c(F)c(C(F)(F)F)ccc12
42 to 43	CC(C)(C)N1CC(O)C1
90 to 93	COc1cc2ncc(O[C@H]3CC[C@H](C(=O)O)CC3)nc2cc1OC
108 to 110	COC(=O)c1cccc2c1Nc1cccc(I)c1C2
123 to 124	CNC(=O)C1=C(OC(C)C)c2cc(OC)ccc2S1=O (stereo not drawn)
228	CN1CCC(Sc2[nH]nc(-c3ccc(Cl)cc3)c2-c2ccncc2)CC1
139 to 141	O=C1c2ccccc2OC2CCCON12 (stereo not drawn)
206 to 207	CCn1nc2c(N)nc3c(c2c1CC(C)C)CCCC3
191	CN(c1cccc2cc(C3=NCC4(CCN(CC(C)(C)O)CC4)S3)[nH]c12)S(=O)(=O)c1cccs1
157 to 159	CSc1ccc(C(=O)Nc2c(Cl)cncc2Cl)cc1OC1CCCC1
118 to 120	CN(C)C(=O)CON(Cc1ccc(F)cc1)C(=O)C=C(O)C(=O)O
154 to 156	COc1ccc(C2=NN(c3cnc4ccccc4n3)C(=O)[C@H]3CC=CC[C@@H]23)cc1OC (relative stereo)
203 to 205	Cc1nc2cc3c(cc2c(=O)[nH]1)C(N(C)c1ccc(C(=O)NC(CCc2nnn[nH]2)C(=O)O)c(F)c1)CC3 (mixture of isomers)
217 to 219	COc1ccc(C2=NN(c3cc(C)c4c(C)nn(C)c4n3)C(=O)[C@H]3CC=CC[C@@H]23)cc1Cl (relative stereo)
154 to 155	CCOC(=O)c1cc(NCc2ccccc2)c(Oc2ccccc2)c(S(=O)(=O)N(C)C)c1
146 to 147	CC(C)(C)OC(=O)CC1=CCCCC1n1nc(-c2c(-c3ccccc3)nn3ccccc23)ccc1=O (stereo not drawn)
234 to 235	COc1ccc(C(=O)Nc2ccc(C(C)(C)C(N)=O)cc2)cc1
